{"source": "patent US12624031B2", "about": "“Inhibitors of ubiquitin specific peptidase 22 (USP22) and uses thereof for treating diseases and disorders” (Northwestern University, priority 2022, dated 2026)", "key": {"[1]": {"tested_on": "polarized CD4+ T-regulatory cells", "assay": "cytotoxicity in polarized CD4+ T-regulatory cells", "format": "cell-based, murine", "conditions": "156 ng/mL to 5 ug/mL, compared to DMSO controls", "description": "FIG. 2: Cytotoxicity of compounds from 156 ng/mL to 5 ug/mL concentration range in polarized CD4+ T-regulatory cells. Murine CD4+ T-cells were isolated and polarized in vitro to T-regulatory cells using 5 ng/mL IL-2, 2 μg/mL anti-IL-4, 2 μg/mL anti-IFNγ, and 1 ng/mL TGFβ. After 48 hours, the inhibitors were added to the cells.\nWe then synthesized all 17 compounds and validated their cytotoxicity to regulatory T cells. To this end, mouse CD4 T cells were polarized to FoxP3 Tregs for two days, followed by treatment of the cells with each of the compounds at the doses upto 5 ug/ml. […] In addition, the rest of the compounds had poor solubility in DMSO, and were not further tested."}, "[2]": {"tested_on": "FoxP3 expression in CD4+ natural T-regulatory cells", "assay": "FoxP3 expression in natural T-regulatory cells by flow cytometry", "format": "cell-based, murine", "conditions": "concentration of 1-2 ug", "description": "FIGS. 3 and 4: Change in FoxP3 expression in murine CD4+ natural T-regulatory cells. Murine lymphocytes were isolated from the spleens and lymph nodes and cultured with varying concentrations of inhibitor (0.25 μg/mL to 2 μg/mL) or DMSO, anti-CD3, anti-CD28, TGFβ, and IL-2. After two days, lymphocytes were analyzed by flow cytometry for FoxP3 expression in natural T-regulatory (nTregs) gated on CD3+CD4+CD25+FoxP3+. (FIG. 3) Representative histograms of FITC::FoxP3 MFI in nTregs cultured with inhibitors at a concentration of 2 μg/mL. (FIG. 4) Representative plot of FITC::FoxP3 geometric MFI in nTregs across different concentrations of inhibitor.\nWe then analyzed whether treatment of Tregs with the compounds S106, 107 and 110 inhibits USP22 activity in Tregs as measured by FoxP3 expression levels by flow cytometry."}, "[3]": {"tested_on": "LLC1 tumors in WT mice", "assay": "LLC1 tumor model in WT mice", "format": "in vivo", "description": "FIG. 5: Usp22 inhibitor administration enhances antitumor immunity. A, Structure of compound CS30 (Usp22i-S02). B, FOXP3 MFI in WT and 22KO of Treg cells after treatment with 20 μg/kg of Usp22i-S02 in vivo (n=3). C, Representative flow cytometry plot of FOXP3+CD25+MFI of CD4+ peripheral cells of mice treated with 20 μg/kg of Usp22i-S 02 relative to control (n=5). D, Graphical representation of Foxp3 MFI upon Usp22i-S02 administration (n=5). E, Tumor growth curve of LLC1 cells subcutaneously injected in the flank of WT mice with or without the addition of 20 mg/kg/time of the Usp22 inhibitor starting at day 15, in 100 μL of oil (n=4). F-G, Representative flow cytometry plot and graphical representation of % infiltration of CD4+ and CD8+ T cells within the tumor (n=4). H, Representative histogram plot and graphical representation of intratumoral Treg (itTreg) Foxp3 MFI (n=4). I, MFI of itTreg suppressive markers (n=3-4). J, Percent Foxp3+IFNg+itTreg cells in control and Usp22-S02 treated mice (n=3-4). B, D-E, G, H-I Two-way ANOVA with multiple comparisons between rows was performed to determine statistical significance. J, Unpaired two tailed T test was performed to determine significance. All data are presented as mean±stdev. NS, not significant. *P<0.05, **P<0.01, ***P<0.001, ****P<0.0001.\nFIG. 7: Usp22i-S02 has little effect on naïve mice, yet enhances anti-tumor immunity in LLC1-challenged mice. A, Body weight of Usp22i-S02 treated mice verses DMSO treated controls over the course of treatment (n=4). A-F. Injections were twice a day for 3 consecutive days at 10 μg/kg (n=4). B, Percent of cell populations in naïve mice treated with Usp22i-S02 relative to DMSO control (n=3-4). C, Percent of KI-67+ cells in various compartments in naïve mice treated with Usp22i-S02 relative to DMSO control (n=3-4). D, Percent CD44^hiCD62L^lo in T cell populations gated on CD45+ cells in naïve mice treated with Usp22i-S02 relative to DMSO control (n=3). E, Percent Annexin+PI+ T cells gates on CD45+ cells in naïve mice treated with Usp22i-S02 relative to DMSO control (n=4). F-H, Organ toxicity panel (VetScan VS2 Comprehensive Diagnostic Rotor lot 1061AA2) of naïve mice treated with Usp22i-S02 relative to DMSO control (n=2-3). I, Growth curve of subcutaneously injected LLC1 in WT mice treated with Usp22i-S02 at 10 μg/kg (n=5-10). I-Q, Injections were twice a day for 5 consecutive days at 10 μg/kg. J, Weights of resected tumors at day 16 from I (n=10). K-L, Representative flow plot and graphical representation of infiltrating T cells gated on CD45+ cells (n=5). M-P, Characterization of intratumoral CD8+ T cells frome mice treated with Usp22i-S02 (n=3-5). Q, Percent of intratumoral Treg cells from mice treated with Usp22i-S02 verses DMSO control, gated on CD4+Foxp3+ from mice (n=5). A-E, I and L, Two-way ANOVA with Sidaks's multiple comparisons between rows relative to control was performed to determine statistical significance. F-H, J, and M-Q, Two-tailed unpaired t-test was performed to determine statistical significance. All data are presented as mean±stdev. NS, not significant. *P<0.05, **P<0.01, ***P<0.001, ****P<0.0001.\nTo determine the functionality of Usp22i-S02 as a potential therapeutic, we tested the inhibitor on established tumors. […] Further analysis of tumor infiltrating lymphocytes was done on mice treated immediately following tumor implantation (FIG. 7I).\nLLC1 cells were transplanted into 6-to-8-week-old C57BL/6 male mice. Subcutaneous injections were performed in the right flank of mice in a final volume of 100 μL using […] per injection. The USP22i-S02 was injected intraperitoneally (i.p) at a concentration of 20 mg/kg/time, in 100 μL of oil, twice a day for 5 days beginning on the day of the LLC1 cells injection. Control animals received 100 μL of oil alone. Subcutaneous tumor diameters were measured daily with calipers until any tumor in the mouse cohort reached 2.5 cm in its largest diameter."}}}
{"smiles": "N#Cc1c2c(c(Nc3ccccc3)n3c1nc1ccccc13)CCCC2", "note": "[USP22i-S02, 11-anilino-7,8,9,10-tetrahydrobenzimidazo[1,2-b]isoquinoline-6-carbonitrile]", "values": [{"measurement": "cytotoxicity to Tregs", "setting": "[1]", "result": "does not show severe cytotoxicity"}, {"measurement": "FoxP3 expression levels in Tregs", "setting": "[2]", "result": "did not reduce the levels of FoxP3"}, {"measurement": "tumor growth of established LLC1 tumors", "setting": "[3]; WT mice, 20 mg/kg/time starting at day 15", "result": "striking tumor rejection"}, {"measurement": "itTreg GITR and PD-1 levels", "setting": "[3]; established LLC1 tumors", "result": "lower levels of GITR and PD-1"}, {"measurement": "itTreg IFN-γ levels", "setting": "[3]; established LLC1 tumors", "result": "significantly higher levels of IFN-γ"}, {"measurement": "Teff cell tumor infiltration", "setting": "[3]; established LLC1 tumors, WT mice", "result": "significant increase in Teff cell tumor infiltration"}, {"measurement": "intratumoral Foxp3+ Treg percentage", "setting": "[3]; established LLC1 tumors, not splenic", "result": "significantly decreased"}, {"measurement": "intratumoral CD8+ T cell phenotype", "setting": "[3]; treated immediately following tumor implantation", "result": "less exhausted phenotype"}, {"measurement": "intratumoral Foxp3+ Treg percentage", "setting": "[3]; treated immediately following tumor implantation (FIG. 7Q)", "result": "significantly decreased"}, {"measurement": "tumor burden", "setting": "[3]; treated immediately following tumor implantation, twice a day for 5 days at 10 μg/kg", "result": "decreased tumor burden"}]}
